pIC50: −log10 of the molar value.
The molecules below were run against T1, human TLR9 (Homo sapiens, UniProt Q9NR96) (assay: HEK293-Blue-hTLR-9 cells assay (SEAP reporter, ODN2006 stimulation)). Conditions: HEK293-Blue-hTLR9 cells, ODN2006 ligand, 20 h incubation.
T1 sequence (Q9NR96 26-1032): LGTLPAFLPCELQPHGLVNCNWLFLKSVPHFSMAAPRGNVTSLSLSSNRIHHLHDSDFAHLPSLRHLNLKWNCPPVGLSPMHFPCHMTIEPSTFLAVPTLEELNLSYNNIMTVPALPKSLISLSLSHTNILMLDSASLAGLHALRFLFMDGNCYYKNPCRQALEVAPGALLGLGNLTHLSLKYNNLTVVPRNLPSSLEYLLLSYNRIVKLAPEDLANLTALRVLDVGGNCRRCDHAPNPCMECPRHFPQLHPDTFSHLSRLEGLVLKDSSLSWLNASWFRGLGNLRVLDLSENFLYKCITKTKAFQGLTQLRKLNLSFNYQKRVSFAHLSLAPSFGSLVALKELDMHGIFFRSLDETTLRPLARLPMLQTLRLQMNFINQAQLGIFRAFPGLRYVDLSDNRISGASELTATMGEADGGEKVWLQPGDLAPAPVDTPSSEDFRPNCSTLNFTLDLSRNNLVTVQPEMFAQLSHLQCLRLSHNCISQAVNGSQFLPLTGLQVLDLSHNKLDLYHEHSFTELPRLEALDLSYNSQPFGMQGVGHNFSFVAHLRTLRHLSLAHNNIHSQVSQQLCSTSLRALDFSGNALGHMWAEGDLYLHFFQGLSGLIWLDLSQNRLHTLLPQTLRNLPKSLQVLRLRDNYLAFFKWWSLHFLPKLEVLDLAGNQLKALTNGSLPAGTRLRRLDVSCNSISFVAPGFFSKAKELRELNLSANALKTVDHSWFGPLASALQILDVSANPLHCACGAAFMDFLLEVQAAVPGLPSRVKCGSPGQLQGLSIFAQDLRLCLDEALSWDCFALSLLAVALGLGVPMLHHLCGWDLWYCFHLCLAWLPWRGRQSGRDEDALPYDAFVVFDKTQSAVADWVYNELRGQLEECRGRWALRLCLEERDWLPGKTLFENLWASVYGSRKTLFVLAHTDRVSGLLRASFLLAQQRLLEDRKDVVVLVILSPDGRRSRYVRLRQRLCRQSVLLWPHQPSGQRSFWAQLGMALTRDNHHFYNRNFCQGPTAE
Type: cell-based
Description: The following tests were carried out in order to determine the activity of the compounds of formula (I) in HEK293-Blue-hTLR-7/8/9 cells assay.
HEK293-Blue-hTLR-9 Cells Assay:
A stable HEK293-Blue-hTLR-9 cell line was purchased from InvivoGen (Cat. #: hkb-htlr9, San Diego, Calif., USA). These cells were originally designed for studying the stimulation of human TLR9 by monitoring the activation of NF-κB. A SEAP (secreted embryonic alkaline phosphatase) reporter gene was placed under the control of the IFN-β minimal promoter fused to five NF-κB and AP-1-binding sites. The SEAP was induced by activating NF-κB and AP-1 via stimulating HEK-Blue hTLR9 cells with TLR9 ligands. Therefore the reporter expression was declined by TLR9 antagonist under the stimulation of a ligand, such as ODN2006 (Cat. #: tlrl-2006-1, Invivogen, San Diego, Calif., USA), for incubation of 20 h. The cell culture supernatant SEAP reporter activity was determined using QUANTI-Blue™ kit (Cat. #: rep-qb1, Invivogen, San Diego, Calif., USA) at a wavelength of 640 nm, a detection medium that turns purple or blue in the presence of alkaline phosphatase.
HEK293-Blue-hTLR9 cells were incubated at a density of 250,000˜450,000 cells/mL in a volume of 170 μL in a 96-well plate in Dulbecco's Modified Eagle's medium (DMEM) containing 4.5 g/L glucose, 50 U/mL penicillin, […], 2 mM L-glutamine, 10% (v/v) heat-inactivated fetal bovine serum with addition of 20 μL test compound in a serial dilution in the presence of final DMSO at 1% and 10 μL of 20 uM ODN2006 in above DMEM, perform incubation under 37° C. in a CO2 incubator for 20 h. Then 20 μL of the supernatant from each well was incubated with 180 μL Quanti-blue substrate solution at 37° C. for 2 h and the absorbance was read at 620˜655 nm using a spectrophotometer. The signalling pathway that TLR9 activation leads to downstream NF-κB activation has been widely accepted, and therefore similar reporter assay was modified for evaluating TLR9 antagonist.
Work on C[C@@H]1CN(c2ccc(C#N)c3ncccc23)C[C@H](C2=Nc3cccc(N4CCNCC4)c3CN2)O1 [Example 6, 5-[(2R,6R)-2-methyl-6-(5-piperazin-1-yl-3,4-dihydroquinazolin-2-yl)morpholin-4-yl]quinoline-8-carbonitrile] yielded a pIC50 of 7.30.
Molecule C[C@@H]1CN(c2ccc(C#N)c3ncccc23)C[C@H](C2=Nc3ccc(N4CCNCC4)cc3CN2)O1 [Example 7, 5-[(2R,6R)-2-methyl-6-(6-piperazin-1-yl-3,4-dihydroquinazolin-2-yl)morpholin-4-yl]quinoline-8-carbonitrile] has a pIC50 of 6.99.
Molecule C[C@@H]1CN(c2ccc(C#N)c3ncccc23)C[C@H](C2=Nc3cc(N4CCNCC4)ccc3CN2)O1 [Example 8, 5-[(2R,6R)-2-methyl-6-(7-piperazin-1-yl-3,4-dihydroquinazolin-2-yl)morpholin-4-yl]quinoline-8-carbonitrile] has a pIC50 of 7.19.
For C[C@@H]1CN(c2ccc(C#N)c3ncccc23)C[C@H](C2=Nc3c(cccc3N3CCNCC3)CN2)O1 [Example 9, 5-[(2R,6R)-2-methyl-6-(8-piperazin-1-yl-3,4-dihydroquinazolin-2-yl)morpholin-4-yl]quinoline-8-carbonitrile], the pIC50 was 7.01.
C[C@@H]1CN(c2ccc(C#N)c3ncccc23)C[C@H](C2=Nc3cccc(N4CCN(C)CC4)c3CN2)O1 [Example 12, 5-[(2R,6R)-2-methyl-6-[5-(4-methylpiperazin-1-yl)-3,4-dihydroquinazolin-2-yl]morpholin-4-yl]quinoline-8-carbonitrile] was tested, and the pIC50 was 7.38.
C[C@@H]1CN(c2ccc(C#N)c3ncccc23)C[C@H](C2=Nc3cccc(N4CCC5(CCNC5)C4)c3CN2)O1 (stereo partly drawn) [Example 13, 5-[(2R,6R)-2-[5-(2,7-diazaspiro[4.4]nonan-2-yl)-3,4-dihydroquinazolin-2-yl]-6-methyl-morpholin-4-yl]quinoline-8-carbonitrile] showed a pIC50 of 6.50.
In the case of C[C@@H]1CN(c2ccc(C#N)c3ncccc23)C[C@H](C2=Nc3cccc(C4=CCNCC4)c3CCN2)O1 [Example 16, 5-[(2R,6R)-2-methyl-6-[6-(1,2,3,6-tetrahydropyridin-4-yl)-4,5-dihydro-3H-1,3-benzodiazepin-2-yl]morpholin-4-yl]quinoline-8-carbonitrile], the pIC50 was 7.19.
For C[C@@H]1CN(c2ccc(C#N)c3ncccc23)C[C@H](C2=Nc3ccc(N4CCNCC4)cc3CCN2)O1 [Example 17, 5-[(2R,6R)-2-methyl-6-(7-piperazin-1-yl-4,5-dihydro-3H-1,3-benzodiazepin-2-yl)morpholin-4-yl]quinoline-8-carbonitrile], the pIC50 was 7.31.
For C[C@@H]1CN(c2ccc(C#N)c3ncccc23)C[C@H](C2=Nc3cccc(C4CCNCC4)c3CN2)O1 [Example 18, 5-[(2R,6R)-2-methyl-6-[5-(4-piperidyl)-3,4-dihydroquinazolin-2-yl]morpholin-4-yl]quinoline-8-carbonitrile], the pIC50 was 7.05.
